{"source": "paper PMC8161536", "about": "“Structure-tuned membrane active Ir-complexed oligoarginine overcomes cancer cell drug resistance and triggers immune responses in mice” (Chemical Science, 2020)", "type_in_all_cases": "cell-based", "key": {"A549/DDP": {"tested_on": "A549/DDP", "assay": "MTT cytotoxicity, cisplatin-resistant A549/DDP", "details": "Ir-cR8 24 h, cisplatin 48 h, unit inferred, test concentrations in μM, read-out: Antiproliferative activity (IC50) A549/DDP", "description": "(Waters Corp., USA) The gradient mobile phase consisted of acetonitrile (A) and H2O (B) both containing […] A typical 15 min sample run consisted of 2 min of 20% solvent A and 80% solvent B followed by an increment of solvent A up to 23% for the remaining 2 min. Then the proportion of solvent A was increased to 45% in the following 8 min and decreased to 20% in the last 3 min. The analytes were monitored by a photo diode array (PDA) detector set at 220 nm and 254 nm and the flow rate was set to 0.3 mL min-1. The separated metallopeptides were collected to lyophilized and quantified by ICP-MASS, then for MTT assay. Circular dichroism assay of Ir-peptides […] The collected Ir- peptides were lyophilized and quantified by ICP-MASS. The Ir-peptides, isomers, mixture of two isomers were diluted to same concentration for circular dichroism test. (Chirascan-plus, Applied photophysics) LogP assay Water and octanol (1:1, v/v) were saturated for 24 h at room temperature and separated as aqueous phase and oil phase. Ir- […] […] CCK-8 of 20 μL was added in each well and incubated for 4 h, then the absorbance at 450 nm of each well was obtained by microplate spectrophotometer to calculate the cell viability. […] The absorbance […]"}, "HL60/Ara-C": {"tested_on": "HL60/Ara-C", "assay": "CCK-8 cytotoxicity, cytarabine-resistant HL60/Ara-C", "details": "Homo sapiens, HL-60; read-out: Antiproliferative activity (IC50) HL60/Ara-C"}, "HL60": {"tested_on": "HL60", "assay": "CCK-8 cytotoxicity, HL60", "details": "Homo sapiens, HL-60; read-out: Antiproliferative activity (IC50) HL60"}, "HL60/ADR": {"tested_on": "HL60/ADR", "assay": "CCK-8 cytotoxicity, doxorubicin-resistant HL60/ADR", "details": "Homo sapiens, read-out: Antiproliferative activity (IC50) HL60/ADR"}, "A549/Taxol": {"tested_on": "A549/Taxol", "assay": "MTT cytotoxicity, paclitaxel-resistant A549/Taxol", "details": "read-out: Antiproliferative activity (IC50) A549/Taxol", "description": "mm × 2.1 mm column. (Waters Corp., USA) The gradient mobile phase consisted of acetonitrile (A) and H2O (B) both containing\n0.1% trifluoroacetic acid. A typical 15 min sample run consisted of 2 min of 20% solvent A and 80% solvent B followed by an\nincrement of solvent A up to 23% for the remaining 2 min. Then the proportion of solvent A was increased to 45% in the\nfollowing 8 min and decreased to 20% in the last 3 min. The analytes were monitored by a photo diode array (PDA) detector\nset at 220 nm and 254 nm and the flow rate was set to 0.3 mL min-1. The separated metallopeptides were collected to\nlyophilized and quantified by ICP-MASS, then for MTT assay.\nCircular dichroism assay of Ir-peptides\npeptides were lyophilized and quantified by ICP-MASS. The Ir-peptides, isomers, mixture of two isomers were diluted to same\nconcentration for circular dichroism test. (Chirascan-plus, Applied photophysics)\nWater and octanol (1:1, v/v) were saturated for 24 h at room temperature and separated as aqueous phase and oil phase. Ir- […]\nthe standard curves by fluorescence spectrophotometer, Ex Slit:5.0 nm, Em Slit:5.0 nm, 650 V. Then the aqueous phase’s\nfluorescence intensities in samples containing both oil and aqueous phases were scanned, the concentration in aqueous phase\nof each Ir-peptide was calculated by standard curve, the Ir-peptide’s initial concentration in aqueous phase minus 24 hour’s […]"}, "HeLa cells": {"tested_on": "HeLa cells", "details": "24 h", "description": "(Waters Corp., USA) The gradient mobile phase consisted of acetonitrile (A) and H2O (B) both containing […] A typical 15 min sample run consisted of 2 min of 20% solvent A and 80% solvent B followed by an increment of solvent A up to 23% for the remaining 2 min. Then the proportion of solvent A was increased to 45% in the following 8 min and decreased to 20% in the last 3 min. The analytes were monitored by a photo diode array (PDA) detector set at 220 nm and 254 nm and the flow rate was set to 0.3 mL min-1. The separated metallopeptides were collected to lyophilized and quantified by ICP-MASS, then for MTT assay. Circular dichroism assay of Ir-peptides […] The collected Ir- peptides were lyophilized and quantified by ICP-MASS. The Ir-peptides, isomers, mixture of two isomers were diluted to same concentration for circular dichroism test. (Chirascan-plus, Applied photophysics) LogP assay Water and octanol (1:1, v/v) were saturated for 24 h at room temperature and separated as aqueous phase and oil phase. Ir- […] Samples were stirred for 24 h at room […] the standard curves by fluorescence spectrophotometer, Ex Slit:5.0 nm, Em Slit:5.0 nm, 650 V. Then the aqueous phase's fluorescence intensities in samples containing both oil and aqueous phases were scanned, the concentration in aqueous phase of each Ir-peptide was calculated by standard curve, the Ir-peptide's initial concentration in aqueous phase minus 24 hour's concentration in aqueous phase to obtain the 24 hour's concentration in oil phase, logP=log(c oil/caqueous). Cell culture […] cells were incubated in RPMI 1640 medium with 10% fetal bovine serum, 37 °C, 5%CO2. […] Pharmacology Department, College of Pharmaceutical Sciences, Soochow University. […] obtained from Institute of Hematology and Blood Diseases Hospital, Chinese Academy of Medical Sciences & Peking Union Medical College. Induction of cisplatin resistant A549/DDP cells […] entering the logarithmic growth period. Then the medium was replaced by DMEM medium containing 10% fetal bovine serum and 0.125 μM cisplatin. The cells were incubated with cisplatin for 24 h and the medium was removed and no cisplatin DMEM […] The induction followed this […] The concentration of cisplatin was twice as much as before in each induction. Then the cells were incubated with DMEM containing 10% fetal bovine serum and 4 μM cisplatin for two months and medium containing cisplatin was replaced by no-cisplatin medium two weeks before experiment. Cytotoxicity HeLa cells were cultured in 96-well microplates, 8*10^3 cells per well overnight. […] CCK-8 of 20 μL was added in each well and incubated for 4 h, then the absorbance at 450 nm of each well was obtained by microplate spectrophotometer to calculate the cell viability. […] The absorbance […]"}}, "data": [{"compound": "N.N.[Cl][Pt][Cl]", "note": "[Cisplatin, cisplatin]", "values": [{"measurement": "IC50", "setting": "A549/DDP", "result": "> 128", "unit": "µM"}]}, {"compound": "Nc1ccn([C@@H]2O[C@H](CO)[C@@H](O)[C@@H]2O)c(=O)n1", "note": "[Cytarabine, cytarabine]", "values": [{"measurement": "IC50", "setting": "HL60/Ara-C", "result": "> 128", "unit": "µM"}, {"measurement": "IC50", "setting": "HL60", "result": "70 ± 3", "unit": "nM"}]}, {"compound": "COc1cccc2c1C(=O)c1c(O)c3c(c(O)c1C2=O)C[C@@](O)(C(=O)CO)C[C@@H]3O[C@H]1C[C@H](N)[C@H](O)[C@H](C)O1", "note": "[Doxorubicin, doxorubicin]", "values": [{"measurement": "IC50", "setting": "HL60/ADR", "result": "8.3 ± 0.2", "unit": "µM"}, {"measurement": "IC50", "setting": "HL60", "result": "130 ± 60", "unit": "nM"}]}, {"compound": "CC(=O)O[C@H]1C(=O)[C@@]2(C)[C@H]([C@H](OC(=O)c3ccccc3)[C@]3(O)C[C@H](OC(=O)[C@H](O)[C@@H](NC(=O)c4ccccc4)c4ccccc4)C(C)=C1C3(C)C)[C@]1(OC(C)=O)CO[C@@H]1C[C@@H]2O", "note": "[Paclitaxel, paclitaxel]", "values": [{"measurement": "IC50", "setting": "A549/Taxol", "result": "25.8 ± 0.5", "unit": "µM"}]}, {"compound": "Ac-HHRRR-NH2 [aR3]", "values": [{"measurement": "IC50", "setting": "HeLa cells", "result": "> 100", "unit": "µM"}]}, {"compound": "Ac-HHRRRR-NH2 [aR4]", "values": [{"measurement": "IC50", "setting": "HeLa cells", "result": "> 100", "unit": "µM"}]}, {"compound": "Ac-HRRRH-NH2 [cR3]", "values": [{"measurement": "IC50", "setting": "HeLa cells", "result": "> 100", "unit": "µM"}]}, {"compound": "Ac-HRRRRH-NH2 [cR4]", "values": [{"measurement": "IC50", "setting": "HeLa cells", "result": "> 100", "unit": "µM"}]}]}
